Laboratory results as given in ChEMBL document CHEMBL5150068, “Structure-Based Design of Tropane Derivatives as a Novel Series of CCR5 Antagonists with Broad-Spectrum Anti-HIV-1 Activities and Improved Oral Bioavailability” (J Med Chem, 2022).
pEC50, pIC50: −log10 of the molar value.

Test system: not listed separately
Assay: in vitro
Settings: human, TZM-bl cells
Description: Therapeutic index, ratio of CC50 for human TZM-bl cells to EC50 for antiviral activity against HIV-1 Ba-L
Work on `Cc1csc([C@H](CCN2[C@@H]3CC[C@H]2C[C@H](n2c(C)nnc2C(C)C)C3)NC(=O)C2CCN(S(C)(=O)=O)CC2)c1` yielded a selectivity ratio greater than 10500.
With `Cc1nnc(C(C)C)n1[C@@H]1C[C@H]2CC[C@@H](C1)N2CC[C@H](NC(=O)C1CCCCC1)c1ccc(F)s1` the selectivity ratio was greater than 75.2.
Molecule `COC(=O)C1CCC(C(=O)N[C@@H](CCN2[C@@H]3CC[C@H]2C[C@H](n2c(C)nnc2C(C)C)C3)c2cccs2)CC1` (stereo not given in full) has a selectivity ratio greater than 22200.
With `Cc1nnc(C(C)C)n1[C@@H]1C[C@H]2CC[C@@H](C1)N2CC[C@H](NC(=O)C1CCCC1)c1ccsc1Cl` the selectivity ratio was greater than 219.
For `Cc1nnc(C(C)C)n1[C@@H]1C[C@H]2CC[C@@H](C1)N2CC[C@H](NC(=O)C1CCC(F)(F)CC1)c1cscn1`, the selectivity ratio was 2560.
`COCc1nnc(C(C)C)n1[C@@H]1C[C@H]2CC[C@@H](C1)N2CC[C@H](NC(=O)C1CCC(F)(F)CC1)c1ccsc1` gave a selectivity ratio of 2430.
Molecule `CC(=O)N[C@@H](CCN1[C@@H]2CC[C@H]1C[C@H](n1c(C)nnc1C(C)C)C2)c1cccs1` has a selectivity ratio of 36.8.
In the case of `CC(=O)Nc1cccc(C(=O)N[C@@H](CCN2[C@@H]3CC[C@H]2C[C@H](n2c(C)nnc2C(C)C)C3)c2cccs2)c1`, the selectivity ratio was greater than 59.
Work on `Cc1nnc(C(C)C)n1[C@@H]1C[C@H]2CC[C@@H](C1)N2CC[C@H](NC(=O)C1CCC(F)(F)CC1)c1ccsc1Cl` yielded a selectivity ratio greater than 370.
`CNS(=O)(=O)c1cccc(C(=O)N[C@@H](CCN2[C@@H]3CC[C@H]2C[C@H](n2c(C)nnc2C(C)C)C3)c2cccs2)c1` gave a selectivity ratio greater than 43.2.
`Cc1ccc([C@H](CCN2[C@@H]3CC[C@H]2C[C@H](n2c(C)nnc2C(C)C)C3)NC(=O)C2CCN(S(C)(=O)=O)CC2)s1` showed a selectivity ratio greater than 44.

Target: C-C chemokine receptor type 5 (Homo sapiens, UniProt P51681)
Sequence (P51681 whole entry): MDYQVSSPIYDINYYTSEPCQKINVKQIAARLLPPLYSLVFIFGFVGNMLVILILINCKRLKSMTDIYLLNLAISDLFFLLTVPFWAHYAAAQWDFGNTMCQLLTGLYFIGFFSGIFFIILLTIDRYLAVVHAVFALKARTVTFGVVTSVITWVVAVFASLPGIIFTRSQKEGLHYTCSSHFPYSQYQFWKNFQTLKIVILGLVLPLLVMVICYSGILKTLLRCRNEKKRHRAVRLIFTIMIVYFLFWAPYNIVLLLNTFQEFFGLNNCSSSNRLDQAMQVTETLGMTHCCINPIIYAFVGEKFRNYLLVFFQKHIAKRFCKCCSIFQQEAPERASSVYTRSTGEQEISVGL
Assay: Antagonist activity at CCR5 (unknown origin) expressed in HEK293 cells co-expressing Galpha16 assessed as intracellular calcium change incubated for 15 mins by Fluo-4 AM calcium flux assay
Format: functional, cell-based
Settings: not given
In the case of `Cc1csc([C@H](CCN2[C@@H]3CC[C@H]2C[C@H](n2c(C)nnc2C(C)C)C3)NC(=O)C2CCN(S(C)(=O)=O)CC2)c1`, the pIC50 was 7.67.
With `Cc1nnc(C(C)C)n1[C@@H]1C[C@H]2CC[C@@H](C1)N2CC[C@H](NC(=O)C1CCC(F)(F)CC1)c1ccc(C#N)s1` the pIC50 was less than 5.00.
`Cc1nnc(C(C)C)n1[C@@H]1C[C@H]2CC[C@@H](C1)N2CC[C@H](NC(=O)C1CCCCC1)c1ccc(F)s1` gave a pIC50 of 8.03.
For `COC(=O)C1CCC(C(=O)N[C@@H](CCN2[C@@H]3CC[C@H]2C[C@H](n2c(C)nnc2C(C)C)C3)c2cccs2)CC1` (stereo not given in full), the pIC50 was 7.93.
In the case of `Cc1nnc(C(C)C)n1[C@@H]1C[C@H]2CC[C@@H](C1)N2CC[C@H](NC(=O)C1CCCC1)c1ccsc1Cl`, the pIC50 was 8.36.
Molecule `Cc1nnc(C(C)C)n1[C@@H]1C[C@H]2CC[C@@H](C1)N2CC[C@H](NC(=O)C1CCC(F)(F)CC1)c1cscn1` has a pIC50 of 7.17.
In the case of `COc1ccc(S(N)(=O)=O)cc1C(=O)N[C@@H](CCN1[C@@H]2CC[C@H]1C[C@H](n1c(C)nnc1C(C)C)C2)c1cccs1`, the pIC50 was 5.86.
`COCc1nnc(C(C)C)n1[C@@H]1C[C@H]2CC[C@@H](C1)N2CC[C@H](NC(=O)C1CCC(F)(F)CC1)c1ccsc1` showed a pIC50 of 8.60.
For `Cc1nnc(C(C)C)n1[C@@H]1C[C@H]2CC[C@@H](C1)N2CC[C@H](NC(=O)C(F)(F)F)c1csc2ccccc12`, the pIC50 was 6.17.
In the case of `CC(=O)N[C@@H](CCN1[C@@H]2CC[C@H]1C[C@H](n1c(C)nnc1C(C)C)C2)c1cccs1`, the pIC50 was 7.82.
Molecule `Cc1ccc([C@H](CCN2[C@@H]3CC[C@H]2C[C@H](n2c(C)nnc2C(C)C)C3)NC(=O)CC#N)s1` has a pIC50 of 7.14.
Work on `CC(=O)Nc1cccc(C(=O)N[C@@H](CCN2[C@@H]3CC[C@H]2C[C@H](n2c(C)nnc2C(C)C)C3)c2cccs2)c1` yielded a pIC50 of 7.39.
For `Cc1nnc(C(C)C)n1[C@@H]1C[C@H]2CC[C@@H](C1)N2CC[C@H](NC(=O)C1CCCC1)c1ccc(C#N)s1`, the pIC50 was less than 5.00.
`Cc1nnc(C(C)C)n1[C@H]1C[C@H]2CC[C@@H](C1)N2CC[C@H](NC(=O)C1CCCCC1)c1ccc(C#N)s1` showed a pIC50 of less than 5.00.
For `Cc1nnc(C(C)C)n1[C@@H]1C[C@H]2CC[C@@H](C1)N2CC[C@H](NC(=O)C1CCC(F)(F)CC1)c1ccsc1Cl`, the pIC50 was 8.27.
In the case of `Cc1ccc([C@H](CCN2[C@@H]3CC[C@H]2C[C@H](n2c(C)nnc2C(C)C)C3)NC(=O)Cn2cnnn2)s1`, the pIC50 was 7.35.
For `CNS(=O)(=O)c1cccc(C(=O)N[C@@H](CCN2[C@@H]3CC[C@H]2C[C@H](n2c(C)nnc2C(C)C)C3)c2cccs2)c1`, the pIC50 was 7.50.
With `Cc1ccc([C@H](CCN2[C@@H]3CC[C@H]2C[C@H](n2c(C)nnc2C(C)C)C3)NC(=O)C2CCN(S(C)(=O)=O)CC2)s1` the pIC50 was 8.10.

Test system: not listed separately
Assay: Cytotoxicity against human TZM-bl cells incubated for 48 hrs by MTT assay
Format: toxicity, cell-based
Settings: not given
`Cc1csc([C@H](CCN2[C@@H]3CC[C@H]2C[C@H](n2c(C)nnc2C(C)C)C3)NC(=O)C2CCN(S(C)(=O)=O)CC2)c1` gave a CC50 at 48 h greater than 200000 nM.
`Cc1nnc(C(C)C)n1[C@@H]1C[C@H]2CC[C@@H](C1)N2CC[C@H](NC(=O)C1CCC(F)(F)CC1)c1ccc(C#N)s1` showed a CC50 at 48 h greater than 200000 nM.
`Cc1nnc(C(C)C)n1[C@@H]1C[C@H]2CC[C@@H](C1)N2CC[C@H](NC(=O)C1CCCCC1)c1ccc(F)s1` gave a CC50 at 48 h greater than 200000 nM.
For `COC(=O)C1CCC(C(=O)N[C@@H](CCN2[C@@H]3CC[C@H]2C[C@H](n2c(C)nnc2C(C)C)C3)c2cccs2)CC1` (stereo not given in full), the CC50 at 48 h was greater than 200000 nM.
For `Cc1nnc(C(C)C)n1[C@@H]1C[C@H]2CC[C@@H](C1)N2CC[C@H](NC(=O)C1CCCC1)c1ccsc1Cl`, the CC50 at 48 h was greater than 200000 nM.
For `Cc1nnc(C(C)C)n1[C@@H]1C[C@H]2CC[C@@H](C1)N2CC[C@H](NC(=O)C1CCC(F)(F)CC1)c1cscn1`, the CC50 at 48 h was greater than 200000 nM.
`COc1ccc(S(N)(=O)=O)cc1C(=O)N[C@@H](CCN1[C@@H]2CC[C@H]1C[C@H](n1c(C)nnc1C(C)C)C2)c1cccs1` showed a CC50 at 48 h greater than 200000 nM.
With `COCc1nnc(C(C)C)n1[C@@H]1C[C@H]2CC[C@@H](C1)N2CC[C@H](NC(=O)C1CCC(F)(F)CC1)c1ccsc1` the CC50 at 48 h was 72900 nM.
For `Cc1nnc(C(C)C)n1[C@@H]1C[C@H]2CC[C@@H](C1)N2CC[C@H](NC(=O)C(F)(F)F)c1csc2ccccc12`, the CC50 at 48 h was greater than 200000 nM.
`CC(=O)N[C@@H](CCN1[C@@H]2CC[C@H]1C[C@H](n1c(C)nnc1C(C)C)C2)c1cccs1` gave a CC50 at 48 h of 40500 nM.
With `Cc1ccc([C@H](CCN2[C@@H]3CC[C@H]2C[C@H](n2c(C)nnc2C(C)C)C3)NC(=O)CC#N)s1` the CC50 at 48 h was greater than 200000 nM.
Molecule `CC(=O)Nc1cccc(C(=O)N[C@@H](CCN2[C@@H]3CC[C@H]2C[C@H](n2c(C)nnc2C(C)C)C3)c2cccs2)c1` has a CC50 at 48 h greater than 200000 nM.
With `Cc1nnc(C(C)C)n1[C@@H]1C[C@H]2CC[C@@H](C1)N2CC[C@H](NC(=O)C1CCCC1)c1ccc(C#N)s1` the CC50 at 48 h was greater than 200000 nM.
`Cc1nnc(C(C)C)n1[C@H]1C[C@H]2CC[C@@H](C1)N2CC[C@H](NC(=O)C1CCCCC1)c1ccc(C#N)s1` gave a CC50 at 48 h greater than 200000 nM.
`Cc1nnc(C(C)C)n1[C@@H]1C[C@H]2CC[C@@H](C1)N2CC[C@H](NC(=O)C1CCC(F)(F)CC1)c1ccsc1Cl` gave a CC50 at 48 h greater than 200000 nM.
`Cc1ccc([C@H](CCN2[C@@H]3CC[C@H]2C[C@H](n2c(C)nnc2C(C)C)C3)NC(=O)Cn2cnnn2)s1` showed a CC50 at 48 h greater than 200000 nM.
With `CNS(=O)(=O)c1cccc(C(=O)N[C@@H](CCN2[C@@H]3CC[C@H]2C[C@H](n2c(C)nnc2C(C)C)C3)c2cccs2)c1` the CC50 at 48 h was greater than 200000 nM.
In the case of `Cc1ccc([C@H](CCN2[C@@H]3CC[C@H]2C[C@H](n2c(C)nnc2C(C)C)C3)NC(=O)C2CCN(S(C)(=O)=O)CC2)s1`, the CC50 at 48 h was greater than 200000 nM.

Test system: Human immunodeficiency virus 1
Assay: Antiviral activity against HIV-1 YU-2 infected in human TZM-bl cells measured after 48 hrs incubation by luciferase based analysis
Format: functional, organism-based
Settings: Human immunodeficiency virus 1, YU-2, TZM-bl, 48 h
`Cc1csc([C@H](CCN2[C@@H]3CC[C@H]2C[C@H](n2c(C)nnc2C(C)C)C3)NC(=O)C2CCN(S(C)(=O)=O)CC2)c1` gave a pEC50 of 7.72.
Molecule `COC(=O)C1CCC(C(=O)N[C@@H](CCN2[C@@H]3CC[C@H]2C[C@H](n2c(C)nnc2C(C)C)C3)c2cccs2)CC1` (stereo not given in full) has a pEC50 of 8.05.

Test system: Human immunodeficiency virus 1
Assay: Antiviral activity against HIV-1 Ba-L infected in human TZM-bl cells measured after 48 hrs incubation by luciferase based analysis
Format: functional, organism-based
Settings: Human immunodeficiency virus 1, Ba-L
With `Cc1nnc(C(C)C)n1[C@@H]1C[C@H]2CC[C@@H](C1)N2CC[C@H](NC(=O)C1CCC(F)(F)CC1)c1ccc(C#N)s1` the pEC50 was less than 3.70.
Work on `Cc1nnc(C(C)C)n1[C@@H]1C[C@H]2CC[C@@H](C1)N2CC[C@H](NC(=O)C1CCCC1)c1ccsc1Cl` yielded a pEC50 of 6.04.
With `Cc1nnc(C(C)C)n1[C@@H]1C[C@H]2CC[C@@H](C1)N2CC[C@H](NC(=O)C1CCC(F)(F)CC1)c1cscn1` the pEC50 was 7.11.
Work on `COc1ccc(S(N)(=O)=O)cc1C(=O)N[C@@H](CCN1[C@@H]2CC[C@H]1C[C@H](n1c(C)nnc1C(C)C)C2)c1cccs1` yielded a pEC50 of less than 3.70.
`COCc1nnc(C(C)C)n1[C@@H]1C[C@H]2CC[C@@H](C1)N2CC[C@H](NC(=O)C1CCC(F)(F)CC1)c1ccsc1` gave a pEC50 of 7.52.
Work on `Cc1ccc([C@H](CCN2[C@@H]3CC[C@H]2C[C@H](n2c(C)nnc2C(C)C)C3)NC(=O)CC#N)s1` yielded a pEC50 of less than 4.30.
`CC(=O)Nc1cccc(C(=O)N[C@@H](CCN2[C@@H]3CC[C@H]2C[C@H](n2c(C)nnc2C(C)C)C3)c2cccs2)c1` gave a pEC50 of 5.47.
Work on `Cc1nnc(C(C)C)n1[C@@H]1C[C@H]2CC[C@@H](C1)N2CC[C@H](NC(=O)C1CCCC1)c1ccc(C#N)s1` yielded a pEC50 of less than 3.70.
Molecule `Cc1nnc(C(C)C)n1[C@H]1C[C@H]2CC[C@@H](C1)N2CC[C@H](NC(=O)C1CCCCC1)c1ccc(C#N)s1` has a pEC50 of less than 3.70.
`Cc1nnc(C(C)C)n1[C@@H]1C[C@H]2CC[C@@H](C1)N2CC[C@H](NC(=O)C1CCC(F)(F)CC1)c1ccsc1Cl` gave a pEC50 of 6.27.
In the case of `Cc1ccc([C@H](CCN2[C@@H]3CC[C@H]2C[C@H](n2c(C)nnc2C(C)C)C3)NC(=O)Cn2cnnn2)s1`, the pEC50 was less than 4.30.
`CNS(=O)(=O)c1cccc(C(=O)N[C@@H](CCN2[C@@H]3CC[C@H]2C[C@H](n2c(C)nnc2C(C)C)C3)c2cccs2)c1` showed a pEC50 of 5.33.
`Cc1ccc([C@H](CCN2[C@@H]3CC[C@H]2C[C@H](n2c(C)nnc2C(C)C)C3)NC(=O)C2CCN(S(C)(=O)=O)CC2)s1` showed a pEC50 of 5.34.

Test system: Human immunodeficiency virus 1
Assay: Antiviral activity against HIV-1 SF162 infected in human TZM-bl cells measured after 48 hrs incubation by luciferase based analysis
Format: functional, organism-based
Settings: Human immunodeficiency virus 1, SF162, TZM-bl
`Cc1nnc(C(C)C)n1[C@@H]1C[C@H]2CC[C@@H](C1)N2CC[C@H](NC(=O)C1CCCCC1)c1ccc(F)s1` gave a pEC50 of 5.58.
`Cc1nnc(C(C)C)n1[C@@H]1C[C@H]2CC[C@@H](C1)N2CC[C@H](NC(=O)C(F)(F)F)c1csc2ccccc12` showed a pEC50 of less than 4.40.
`CC(=O)N[C@@H](CCN1[C@@H]2CC[C@H]1C[C@H](n1c(C)nnc1C(C)C)C2)c1cccs1` showed a pEC50 of 5.96.
